This note sets out measurements from patent publication US20220217970A1, “Perfusion Regulated Organ Therapeutics with Enhanced Controlled Testing” (priority 2021, published 2022).

For assay [1], the system named is split human marginal donor liver (MDL) lobes. The assay can be described thus: Serological liver injury markers during PROTECT normothermic perfusion of split liver lobes (Experiment 2). The following applies: DM infusion 0.6 mmol/L, listed as DMAT. From the text:
In order to provide anatomic perfusion, a novel NMP described above and shown in FIGS. 1 and 2 was developed using an extra-corporal membrane oxygenation (ECMO) roller pump (Sorin/Stockert S3) with a modified circuit to provide dual blood supply to the hepatic artery and portal vein. Incorporated into this design was an arterial supply that passes through an oxygenator (Capiox Fx) and was connected to the hepatic artery.
Portal venous blood supply bypassed the oxygenator, was delivered to a reservoir, and then flowed by gravity into the portal vein. Pressure was regulated by the intrinsic resistance within the liver's arterial and portal venous circulations, combined with the resistance within the two limbs of the circuit and the flow delivered to each. […]
The circuit was monitored under guidance from a University certified ECMO perfusionist and the hospital ECMO physician team. […]
During each perfusion run (Table 1), laboratory analysis was carried out at regular intervals. Perfusate pH, pCO2, pO2, bicarbonate levels, and serum electrolytes (Na^+, K^+, Cl^−, ionized Ca^2+) were monitored every hour by automated blood gas analysis of both arterial and portal venous blood samples. […] Serum markers of liver injury, specifically AST, ALT, GGT, and alkaline phosphatase, were monitored hourly. […]
(§1) DM Dosing: In addition to the liver lobe weight, the volume of the cold preservation solution was measured. […]

Assay [2] has the same test system. The assay can be described thus: Ki67 and CK-7 immunohistochemistry labeling index of perfused split lobes (Experiment 2). As to the method: As a proof of concept, the system 10 was used to test the effect on IRI by deferoxamine (DM), which is a chelator of iron and a ferroptosis regulator. During the testing, one liver lobe was used as an internal control for the treated lobe. Ferroptosis, an iron-dependent form of programmed cell death, has been implicated as a mechanism of pathogenesis in models of liver, kidney, and lung reperfusion injury. […] In the DM Agent Treated (DMAT) lobe, DM was administered to one split liver segment, while the other segment served as the No Agent Internal Control (NAIC) lobe. This experiment was deemed as Experiment 2.
as §1
Liver biopsy tissue from each liver segment was fixed in 10% buffered formalin for 24 hours. […] The following describes the specific stains and the methods utilized for quantification.
Ki67 labeling index: The nuclear antigen Ki67 is expressed in the cell cycle phases G1, S, G2 and M, however not during G0. The percentage of the Ki67 positive nuclei are expressed as a labeling index, which provides an objective cell proliferation index in the tissues. […] All the positive (immunoreactive) hepatic nuclei were calculated and subsequently divided by the total number of cells in 5 non-overlapping high-power fields. […]

Take `CC(=O)N(O)CCCCCNC(=O)CCC(=O)N(O)CCCCCNC(=O)CCC(=O)N(O)CCCCCN` [Deferoxamine]: the “ΔALT (change in serum ALT over the course of the experiment)” value in assay [1] (Experiment 2, DM Agent Treated lobe vs No Agent Internal Control lobe (ΔALT NAIC 586)) is reported as −405. Also, the “ΔAST (change in serum AST over the course of the experiment)” value in assay [1] (Experiment 2, DM Agent Treated lobe vs No Agent Internal Control lobe (ΔAST NAIC 617)) is recorded as −380. Besides, the “CK-7 expression (labeling index, bile duct proliferation)” value in assay [2] (Experiment 2, DMAT lobe (NAIC 0.30, p=0.29, n=5)) turned out to be 0.26. Also, in assay [2] (conclusion of Experiment 2, DMAT lobe (NAIC 0.38, p=0.16)), the “Ki67 index (hepatocellular proliferation)” value came to 0.32.
